Results: PubChem BioAssay AID328 (DTP/NCI, 2004)
Values joined by “and” are separate entries in the source; they are usually repeats but may differ in a detail not shown here. Equal entries are not always repeated. Toxic doses and inconclusive results are not listed. Rule for the calls: active = survival T/C of 150% or more; inactive = T/C below 125% in these data.

Tested on: BDF1 mice, P388 leukemia ip, median survival T/C
Assay: NCI In Vivo Anticancer Drug Screen. Data for tumor model P388 Leukemia (intraperitoneal) in B6D2F1 (BDF1) mice
Settings: endpoint: median survival time, higher = longer survival
How it was run: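 Steps: implant the tumour, treat one group with compound and another with vehicle, record survival, then divide treated by control.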

Measured: T/C

Cc1c(N)nc([C@H](CC(N)=O)NC[C@H](N)C(N)=O)nc1C(=O)N[C@H](C(=O)N[C@H](C)[C@@H](O)[C@H](C)C(=O)N[C@H](C(=O)NCCc1nc(-c2nc(C(=O)NCCC[S+](C)C)cs2)cs1)[C@@H](C)O)C(OC1OC(CO)C(O)C(O)C1OC1OC(CO)C(O)C(OC(N)=O)C1O)c1cnc[nH]1 (stereo partly drawn)
inactive: dose: 0.12 mg/kg/injection, schedule: Q03HX040 (ip), vehicle: saline 101 % of control | dose: 0.5 mg/kg/injection, schedule: Q03HX040 (ip), vehicle: saline 93 % of control | dose: 1.0 mg/kg/injection, schedule: Q01DX005 (ip), vehicle: water 105 % of control | dose: 1.0 mg/kg/injection, schedule: Q01DX009 (ip), vehicle: water 109 % of control | dose: 2.0 mg/kg/injection, schedule: Q01DX009 (ip), vehicle: saline 112 % of control and 115 % of control | dose: 2.0 mg/kg/injection, schedule: Q01DX009 (ip), vehicle: water 109 % of control | dose: 2.0 mg/kg/injection, schedule: Q03HX008 (ip), vehicle: saline 113 % of control | dose: 2.0 mg/kg/injection, schedule: Q03HX016 (ip), vehicle: saline 109 % of control | dose: 2.88 mg/kg/injection, schedule: Q01DX009 (ip), vehicle: saline 103 % of control | dose: 4.0 mg/kg/injection, schedule: Q01DX005 (ip), vehicle: water 107 % of control | dose: 4.0 mg/kg/injection, schedule: Q01DX009 (ip), vehicle: saline 109 % of control and 110 % of control | dose: 4.0 mg/kg/injection, schedule: Q01DX009 (ip), vehicle: water 98 % of control | dose: 4.0 mg/kg/injection, schedule: Q03HX008 (ip), vehicle: saline 109 % of control and 118 % of control | dose: 4.0 mg/kg/injection, schedule: Q03HX024 (ip), vehicle: saline 118 % of control | dose: 4.0 mg/kg/injection, schedule: Q04DX003 (ip), vehicle: other 124 % of control | dose: 4.8 mg/kg/injection, schedule: Q01DX009 (ip), vehicle: saline 115 % of control | dose: 8.0 mg/kg/injection, schedule: Q01DX005 (ip), vehicle: water 107 % of control | dose: 8.0 mg/kg/injection, schedule: Q01DX009 (ip), vehicle: water 100 % of control | dose: 8.0 mg/kg/injection, schedule: Q03HX008 (ip), vehicle: saline 118 % of control | dose: 8.0 mg/kg/injection, schedule: Q03HX016 (ip), vehicle: saline 122 % of control | dose: 8.0 mg/kg/injection, schedule: Q03HX024 (ip), vehicle: saline 104 % of control and 109 % of control | dose: 8.0 mg/kg/injection, schedule: Q04DX003 (ip), vehicle: other 108 % of control | dose: 10.8 mg/kg/injection, schedule: Q01DX009 (ip), vehicle: saline 110 % of control | dose: 12.0 mg/kg/injection, schedule: Q01DX009 (ip), vehicle: saline 117 % of control | dose: 13.0 mg/kg/injection, schedule: Q01DX001 (ip), vehicle: saline 113 % of control | dose: 13.33 mg/kg/injection, schedule: Q01DX009 (ip), vehicle: saline 119 % of control | dose: 13.33 mg/kg/injection, schedule: Q04DX003 (ip), vehicle: saline 100 % of control | dose: 16.0 mg/kg/injection, schedule: Q01DX001 (ip), vehicle: saline 118 % of control and 122 % of control | dose: 16.0 mg/kg/injection, schedule: Q01DX005 (ip), vehicle: water 109 % of control | dose: 16.0 mg/kg/injection, schedule: Q01DX009 (ip), vehicle: water 86 % of control | dose: 16.0 mg/kg/injection, schedule: Q03HX008 (ip), vehicle: saline 90 % of control and 122 % of control | dose: 16.0 mg/kg/injection, schedule: Q03HX016 (ip), vehicle: saline 104 % of control | dose: 18.0 mg/kg/injection, schedule: Q01DX009 (ip), vehicle: saline 95 % of control and 98 % of control | dose: 20.0 mg/kg/injection, schedule: Q01DX001 (ip), vehicle: saline 113 % of control | dose: 22.22 mg/kg/injection, schedule: Q04DX003 (ip), vehicle: saline 106 % of control | dose: 30.0 mg/kg/injection, schedule: Q01DX001 (ip), vehicle: saline 109 % of control | dose: 30.0 mg/kg/injection, schedule: Q01DX009 (ip), vehicle: saline 86 % of control | dose: 32.0 mg/kg/injection, schedule: Q01DX001 (ip), vehicle: saline 122 % of control | dose: 32.0 mg/kg/injection, schedule: Q04DX003 (ip), vehicle: other 101 % of control | dose: 32.0 mg/kg/injection, schedule: Q04DX003 (ip), vehicle: saline 100 % of control | dose: 32.0 mg/kg/injection, schedule: Q08DX002 (ip), vehicle: saline 109 % of control | dose: 37.0 mg/kg/injection, schedule: Q04DX003 (ip), vehicle: saline 110 % of control | dose: 44.0 mg/kg/injection, schedule: Q01DX001 (ip), vehicle: saline 113 % of control and 118 % of control | dose: 61.7 mg/kg/injection, schedule: Q04DX003 (ip), vehicle: saline 105 % of control | dose: 64.0 mg/kg/injection, schedule: Q01DX001 (ip), vehicle: saline 104 % of control and 118 % of control | dose: 64.0 mg/kg/injection, schedule: Q01DX009 (ip), vehicle: saline 95 % of control | dose: 64.0 mg/kg/injection, schedule: Q04DX003 (ip), vehicle: saline 109 % of control | dose: 64.0 mg/kg/injection, schedule: Q08DX002 (ip), vehicle: saline 122 % of control | dose: 67.0 mg/kg/injection, schedule: Q01DX001 (ip), vehicle: saline 113 % of control | dose: 100.0 mg/kg/injection, schedule: Q01DX001 (ip), vehicle: saline 108 % of control | dose: 128.0 mg/kg/injection, schedule: Q01DX001 (ip), vehicle: saline 118 % of control | dose: 128.0 mg/kg/injection, schedule: Q04DX003 (ip), vehicle: saline 100 % of control | dose: 128.0 mg/kg/injection, schedule: Q08DX002 (ip), vehicle: saline 104 % of control and 118 % of control
